Measurements taken from patent US12636373B2, “Prodrugs with a tridentate self-immolative linker” (The General Hospital Corporation, priority 2018, dated 2026).
Where two headings read alike, the source gives them in different places. Where a SMILES comes first, the peptide text is derived from it. [ ]: non-standard residue; d: D form. The star is where a group is joined. ξ: configuration not given here. Dolaproine = CO[C@@H]([C@@H]1CCCN1)[C@@H](C)C(=O)O; X1 = C=CCOC(=O)Nc1ccc(C(OC(=O)*)C(=O)NCC)cc1; Dil = CC[C@H](C)[C@H](NC)[C@@H](CC(=O)O)OC; X2 = C[C@@H](N*)[C@@H](O)c1ccccc1; NMeV = CN[C@H](C(=O)O)C(C)C; ξV = CC(C)C(N)C(=O)O

Experiments:
[1] = cited from earlier work
[2] = tested on: HT1080 fibrosarcoma cancer cells; assay: Resazurin-based cytotoxicity assay, 72 h; details: for turn-on capacity in cytotoxicity: with vs without Pd-NP
Experimental: (§2) In vitro NP characterization: 5,000 cells per well were added to 96-well plates for cytotoxicity assessment; cells were treated after overnight seeding with compound or the appropriate buffer control (drug-free PLGA-PEG NP), and assessed for viability 72 h later using PrestoBlue (Life Technologies) following the manufacturer's protocol.

[3] = In vitro NP prodrug release in PBS; type: physicochemical; details: over 72 h at 37° C. in PBS
Experimental: Transmission electron microscopy (TEM) was performed in the Microscopy Core of the Center for Systems Biology/Program in Membrane Biology (MGH). […] Excess solution was blotted, grids were stained with phosphotungstic acid, and then blotted, dried and imaged. In vitro NP prodrug release was performed by incubating in PBS at 37° C., separating NPs using a 30 kDa molecular weight cutoff filter (Millipore Amicon) after 72 h, and measuring flow-through for drug content by absorbance (Nanodrop). NP was dissolved in DMF and also measured for drug content by absorbance. Pd-NP, Alloc2R110 and its nanoformulation, and all Pd compounds were synthesized and characterized as previously described.^5

HT1080 cancer cells = assay: Subcellular drug accumulation by intrinsic anthracycline fluorescence microscopy; type: cell-based, human; details: HT1080, 24 h
Experimental: FIGS. 3A-3D. […] Co-localization was determined by tabulating the fraction of NP-positive puncta (vesicles) in cells that contained high RFP expression or not (labeled red and gray, respectively; n>10 cells, bars are mean±std. dev.). b) Following 30 min pre-treatment with the indicated compounds, HT1080 cells were treated with the same NP as in a, and imaged 3 h later (n>6 biological replicates; mean±s.e.m.). c-d) HT1080 tumor cells were treated with C16proDOX, DOX, or Pd-NP with C16proDOX for 24 h, and then imaged by fluorescence microscopy (representative images shown in c) to evaluate subcellular drug accumulation based on endogenous anthracycline fluorescence (scale bar, 20 μm). Yellow lines (c) denote representative examples of how fluorescence intensity profiles were quantified from line-scans through cells (d), shown as means (thick line)±s.e.m. (shading; n>10), for hoechstand anthracycline fluorescence.

HT1080 cells = type: cell-based, human; details: for uptake of fluorescent PLGA-PEG NPs: 30 min pre-treatment, imaged 3 h later
Experimental: In vitro NP uptake imaging. To quantify subcellular localization of NPs in HT1080 cells, Rab7a-RFP and Lamp1-RFP fusion constructs were expressed using a commercial baculovirus platform (CellLight BacMam 2.0, Invitrogen), following manufacturing guidelines. Pharmacological modulation of NP uptake was performed using the following: staurosporine (1 μM; LC labs), latrunculin B (1 μM; Tocris), cytochalasin D (1 μM; Sigma), chloroquine (50 μM; Sigma), and ethylisopropyl amiloride EIPA (100 μM; Tocris). Cells were rinsed in fresh media immediately prior to imaging; only adherent cells were quantified. Chloroquine dose-response measurements were normalized to the C16proDOX control (rather than the chloroquine-free control), in order to compare relative effects on the potency of Pd-mediated C16proDOX activation itself 50 μM chloroquine alone caused a 15-30% decrease in cell viability.

[4] = Pd-mediated uncaging of fluorogenic coumarin substrate (reaction kinetics and catalyst performance); details: PdCl2(TFP)2, HBSS
Experimental: Reaction kinetics and catalyst performance. Alloc-SIL-dPEG4-AMC (8) was reacted at a concentration of 5 μM with palladium catalyst (Pd-1, Pd-2, Pd-3, Pd-4) at a concentration of 10 μM in HBSS and MEM (see FIG. 8). Alloc2R110 was reacted at a concentration of 5 μM with Pd-1 at a concentration of 10 μM in HBSS as described previously.2 Fluorescence was monitored for 10 h at room temperature using 96 well plates and a Tecan Safire 2 fluorescence plate reader.

[5] = Resazurin-based cytotoxicity assay, 72 h; details: human, HT1080 fibrosarcoma cancer cells
Experimental: as §2

[6] = without the C16 anchor; cited from earlier work
[7] = tested on: panel of 4 cancer cell lines; assay: Cytotoxicity across a panel of cancer cell lines, 72 h; type: cell-based; details: prodrug alone, concentrations ≤10 μM
HT1080-EB3-mApple cells = assay: EB3 microtubule comet imaging in live cells; type: cell-based, human; details: 24 h
Experimental: Microtubule imaging. EB3 tracking was performed using an FV1000 confocal laser scanning microscope on a 37° C. heated stage, with XLUMPLFLN 20× (NA 1.0) or LUMFLN 60× (NA 1.1) water-immersion objectives, 1-10× digital zoom, 559-nm diode laser, and BA575-620 emission filter (all Olympus America). […] EB3 tracks were automatically identified and analyzed from time-lapse datasets using u-track software,^35 with tuning of maximum gap number and minimum frame number across datasets to account for differences in image quality; ambiguous and spurious tracks and artifacts were excluded according to requirements for directional continuity (directional persistence as net displacement/path length>0.8) and movement (value>3 pixels). Speed was determined between frames in each track and averaged for each track by computing the mean of the middle 80% of between-frame values. Track overlay figures were produced using a custom python script. Averaged track speeds excluded outliers falling more than 1.5× the interquartile range for each biological replicate.

[8] = tested on: subcutaneous HT1080 xenograft tumors; assay: HT1080 xenograft tumor growth; type: in vivo, nu/nu mice
Experimental: (§1) Cell lines and animal models: All animal research was performed in accordance with guidelines from the Institutional Subcommittee on Research Animal Care. HT1080 xenografts were generated by 2 million cells implanted subcutaneously in flanks of 6-8 week old female nu/nu mice (Cox7/MGH) in 50 μl PBS. MC38 syngeneic tumors were formed by intradermal implantation of 2 million cells in 50 μl PBS, in the flanks of 7-12 week old female C57BL/6 mice (JAX), following previously described inoculation protocols.^33 Four blinded caliper measurements per tumor were used to measure tumor size according to the formula V=(width)^2(length)/2; animals were randomly assigned to treatment groups. Experiments build on prior imaging, biodistribution, and longitudinal tumor growth data that likewise guided determination of experimental sample sizes.^5, 30 Treatment began approximately 3 weeks post-implantation once tumors reached an average diameter of 5.5±1.8 mm in the HT1080 model (mean±std. dev.; n=72), and roughly 2 weeks post-implantation in the MC38 model once tumors reached an average diameter of 5.45±1.2 mm (mean±std. dev.; n=14). […] Blood chemistry readouts were measured from plasma collected in heparinized tubes by terminal cardiac puncture under vaporized isoflurane anesthesia, using the MGH Veterinary Clinical Pathology lab and the automated DriChem blood chemistry analyzer (Heska). […]

[9] = tested on: MC38 murine colon adenocarcinoma tumors; assay: MC38 syngeneic tumor growth; type: in vivo, C57BL/6 mice; details: combined with Pd-NP
Experimental: as §1

[10] = Body weight and blood chemistry of treated tumor-bearing animals; type: in vivo, mice; details: dual Pd-NP and C16proMMAE
Experimental: as §1

[11] = Homo sapiens, HT-1080, 72 h, read-out: IC50 (concentration at which 50% of cells died)

## C=CCOC(=O)N[C@H]1C[C@H](O[C@H]2C[C@](O)(C(=O)CO)Cc3c(O)c4c(c(O)c32)C(=O)c2c(OC)cccc2C4=O)O[C@@H](C)[C@H]1O [Alloc-DOX, reference compound]
[1]; dual Pd-NP and Alloc-DOX strategy
  myelotoxicity: did not
[2]; read-out: IC50 (concentration at which 50% of cells died), HT1080, 72 h, without Pd-NP
  IC50: 18000 nM
[2]
  turn-on capacity in cytotoxicity: ~700 ×

## C=CCOC(=O)Nc1ccc(C(OC(=O)N[C@H]2C[C@H](O[C@H]3C[C@](O)(C(=O)CO)Cc4c(O)c5c(c(O)c43)C(=O)c3c(OC)cccc3C5=O)O[C@@H](C)[C@H]2O)C(=O)NCCCCCCCCCCCCCCCC)cc1 (stereo partly drawn) [C16proDOX, Alloc-SIL-C16-Dox]
[3]
  release of the prodrug payload from the nanoformulation: 20%±6%
HT1080 cancer cells; co-incubation with Pd-NP
  subcellular accumulation: detectable increase of drug in the nucleus compared to the cytoplasm
HT1080 cancer cells; without Pd-NP
  subcellular accumulation: accumulated primarily in cytoplasmic/perinuclear cellular compartments
[2]; HT1080, without Pd-NP
  IC20, fold higher than Alloc-DOX: roughly 15 fold
  IC20, fold higher than uncaged DOX: ~1900 fold
[2]; [11]
  IC50: > 50000 nM

## C/C1=C/C(=O)O[C@@H]2C[C@@H](CC[C@H](C)/C=C\C=C\CC1)O[C@@](O)([C@@H]1CSC(=O)N1)C2 [latrunculin A]
HT1080 cells
  uptake of fluorescent PLGA-PEG NPs: acutely reduced the uptake of NPs

## C=CCOC(=O)Nc1ccc(C(OC(=O)Nc2ccc3c(C)cc(=O)oc3c2)C(=O)NCCOCCOCCOCCO)cc1 (stereo not drawn) [Alloc-SIL-PEG4-AMC, Alloc-SIL-AMC-dPEG4]
[4]
  uncaging rate relative to Alloc2R110 (calculated second order rate constants): approximately 1.5 fold

## C=C1[C@@H](C)[C@H]2[C@H](Cc3ccccc3)NC(=O)[C@]23[C@H](OC(C)=O)/C=C/[C@@](C)(O)C(=O)[C@@H](C)C/C=C/[C@H]3[C@@H]1O [cytochalasin D]
HT1080 cells
  uptake of fluorescent PLGA-PEG NPs: acutely reduced the uptake of NPs

## CCN(CC)CCCC(C)Nc1ccnc2cc(Cl)ccc12 (stereo not drawn) [chloroquine, reference compound]
HT1080 cells; HT1080, 50 μM chloroquine co-treatment, 24 h
  NP accumulation in vesicles: enhanced accumulation of NPs in distinctly large vesicles
[5]
  cytotoxicity at 72 h, 50 μM: 15 to 30%
[2]; HT1080, 50 μM chloroquine, 50 μM Pd-NP, 72 h
  impact on cytotoxicity of combined Pd-NP and C16proDOX treatment: only modest impact

## CCN(c1nc(N)c(C(=O)N=C(N)N)nc1Cl)C(C)C [EIPA, 5-(N-Ethyl-N-isopropyl)amiloride]
HT1080 cells
  uptake of fluorescent PLGA-PEG NPs: acutely reduced the uptake of NPs

## COc1cccc2c1C(=O)c1c(O)c3c(c(O)c1C2=O)C[C@@](O)(C(=O)CO)C[C@@H]3O[C@H]1C[C@H](N)[C@H](O)[C@H](C)O1 [doxorubicin, reference compound]
HT1080 cancer cells; without Pd-NP
  subcellular accumulation: primarily accumulates in the nuclei of cancer cells
[6]
  nano-encapsulation efficiency (earlier report): 22%
[1]; solvent- and nano-formulations, equimolar doses
  myelotoxicity: exhibited myelotoxicity
[2]; [11]
  IC50: 100 nM

## CN[C@@H]1C[C@H]2O[C@@](C)([C@@H]1OC)n1c3ccccc3c3c4c(c5c6ccccc6n2c5c31)C(=O)NC4 [staurosporine]
HT1080 cells
  uptake of fluorescent PLGA-PEG NPs: decreased NP accumulation

## C=CCOC(=O)Nc1ccc(C(OC(=O)N(C)[C@H](C(=O)NC(C(=O)N(C)[C@@H]([C@@H](C)CC)[C@@H](CC(=O)N2CCC[C@H]2[C@H](OC)[C@@H](C)C(=O)N[C@H](C)[C@@H](O)c2ccccc2)OC)C(C)C)C(C)C)C(=O)NCC)cc1 (stereo partly drawn) [C16proMMAE, Alloc-SIL-C16-MMAE] (X1-[NMeV][ξV][Dil][Dolaproine]-X2)
[3]
  release of the prodrug payload from the nanoformulation: < 10%
[7]
  impact on cell growth: no detectable impact on cell growth
HT1080-EB3-mApple cells; 1 μM C16proMMAE combined with 35 μM Pd-NP
  microtubule comets: complete elimination of visible comets
HT1080-EB3-mApple cells; individual treatment, 1 μM MMAE or C16proMMAE, 35 μM Pd-NP
  microtubule comets (prevalence and growth speed): not substantially perturbed
[8]; combined with Pd-NP
  tumor growth at 2 days following the 2nd round of treatment: completely blocked
[8]; compared to Alloc-DOX
  reduction in prodrug dose required for controlling tumor growth in vivo: 50 fold
[9]
  tumor growth: effective at slowing tumor growth
  tumor growth at 2 days following the 2nd round of treatment: completely blocked
[10]; HT1080 or MC38 tumor-bearing animals
  drug-induced weight loss: did not show drug-induced weight loss
[10]; MC38 tumor-bearing mice
  blood chemistry analysis: no signs of drug-induced liver or kidney toxicity
[2]; HT1080, sub-micromolar Pd-NP
  enhanced cytotoxicity with sub-micromolar Pd-NP: > 10 fold
[2]; Homo sapiens, HT-1080, 72 h, read-out: IC50 upon Pd-NP activation
  IC50: 0.015 nM
[2]; Pd-NP concentration 50 μM
  level of prodrug activation based on cytotoxicity: > 90%
[2]; with Pd-NP
  concentration at which cytotoxic upon activation by Pd-NP: < 0.1 nM
[2]
  turn-on capacity in cytotoxicity: > 70,000 ×
